# Results as given in article PMC12510010 (The Journal of Biological Chemistry, 2025).
# How the values were obtained:
# Type in all cases: cell-based
# [1] = test system: MRP4; fluid secretion in human enteroids; assay: STc-stimulated fluid secretion in human enteroids with MK571; settings: STc (1 μM, 30 min), MK571 (10 μM, 30 min), n = 12 to 17 organoids
# Method: (§1) Figure 4 GCC and MRP4 are functionally coupled in the intestinal epithelial cells. A, dot-blot analysis of GST-NHERF1-4 binding with the C-terminal 50 amino acids of MRP4 (MRP4C50) that contains the C-terminal PDZ-domain binding motif ETALCOOH. GST was used as a negative control. 2 and 20 ng of purified MRP4C50 were also immobilized on the nitrocellulose membrane as positive controls for detection. The detection of the protein interaction was performed using S-protein HRP Conjugate. B, the macromolecular complex formation assay between MRP4C50 and GCCC50via NHERF3. […] D, bar-graph represents the amount of cGMP measured using ELISA from total cell lysate and the supernatant (medium) from T-84 cells treated with ± STc (1 μM, 30 min) ± MK571 (10 μM, 30 min). n represents each data point with n = 6 to 8 obtained from three independent experiments. […] E, bar-graph represents the quantitation of fluid secretion in the mouse enteroids treated with ± STc (1 μM, 30 min) ± MK571 (10 μM, 30 min). Fluid secretion in the mouse enteroids calculated from n = 8 to 25 organoids per condition. […] F, bar-graph represents the quantitation of fluid secretion in the human enteroids treated with ± STc (1 μM, 30 min) ± MK571 (10 μM, 30 min). Fluid secretion in the human enteroids calculated from n = 12 to 17 organoids per condition. […]
# (§2) Intestinal crypt isolation and quantitation of fluid secretion in enteroids […]
# [2] = test system: MRP4 (cGMP efflux, T-84 cells); assay: Extracellular cGMP (ELISA), T-84 cells; settings: STc (1 μM, 30 min) + MK571 (10 μM, 30 min), n = 6 to 8, three independent experiments
# Method: as §1
# [3] = test system: MRP4; fluid secretion in mouse enteroids; assay: STc-stimulated fluid secretion in mouse enteroids with MK571; settings: STc (1 μM, 30 min), MK571 (10 μM, 30 min), n = 8 to 25 organoids
# Method: as §1, §2
# [4] = test system: MRP4 (cGMP in T-84 cells); assay: Ratiometric FRET of live cGMP production with sensor cygnet 2.1; settings: STc (100 nm) + MK571 (10 μM), vs STc alone, t test p = 0.0481
# Method: as §1
structure (smiles),measurement,setting,value
CN(C)C(=O)CCSC(SCCC(=O)O)c1cccc(/C=C/c2ccc3ccc(Cl)cc3n2)c1 (stereo not shown) [MK571],STc-stimulated fluid secretion with MK571,[1],enhanced STc-stimulated fluid secretion
same,cGMP in the cell supernatant,[2],reduced cGMP concentrations (in the cell supernatant)
same,STc-stimulated fluid secretion with MK571,[3],enhanced STc-stimulated fluid secretion
same,cGMP accumulation (ratiometric FRET),[4],synergistic accumulation of cGMP
